We go through 2 compounds from US10653689B2, “Combination-based treatment method” (priority 2014, dated 2020).

This experiment relates to BRCA1-deficient human breast cancer cell line, MX-1. Nature of the experiment: Tumor growth delay in MX-1 human breast cancer model in mice. Type of experiment: in vivo. Also noted: Median TTE: unit not given beside the values. The method, then:
Cancerous cells from the BRCA1-deficient human breast cancer cell line, MX-1, were injected subcutaneously in female mice. […]
Animal weight, clinical observations and tumor volume were monitored twice/week until the endpoint (2000 mm^3 of tumor volume or Day 88) was met.
Efficacy was measured by tumor growth delay and regression response rate.

Setting [1] is: rucaparib 30 mg/kg po q.d. × 21.
[2] abbreviates: rucaparib 150 mg/kg po q.d. × 21.

Consider “pentaerythritol-based multi-arm polymer conjugate of irinotecan [PBMAPCI]”, for which, under “PBMAPCI 10 mg/kg iv qwk × 4”, the “Median TTE” value turned out to be 57, the “Regressions CR” value turned out to be 10%, the “Regressions PR” value was 0% and the “Regressions TFS” value is recorded as 10%. Further, for the setting “PBMAPCI 10 mg/kg iv qwk × 4”, the “Statistical Results For Groups Tested” value is recorded as “Significant against vehicle (p ≤ 0.001)”, the T-C worked out at 32 days and the TGD is on record as 129%. Also, for the setting “PBMAPCI 50 mg/kg iv qwk × 4”, the “Median TTE” value was found to be 88, the “Regressions CR” value was determined as 100%, the “Regressions PR” value came to 0% and the “Regressions TFS” value was 100%. In addition, where the note is “PBMAPCI 50 mg/kg iv qwk × 4”, the “Statistical Results For Groups Tested” value is recorded as “Significant against vehicle (p ≤ 0.001)”, the T-C is 63 days and the TGD is listed as 252%.

Consider `CNCc1ccc(-c2[nH]c3cc(F)cc4c3c2CCNC4=O)cc1` [rucaparib], for which, under setting [1], the “Median TTE” value was 39, the “Regressions CR” value was 0%, the “Regressions PR” value is 0% and the “Regressions TFS” value was found to be 0%. Under setting [1], the “Statistical Results For Groups Tested” value is “Significant against vehicle (p ≤ 0.05)”, the T-C worked out at 14 days and the TGD was found to be 56%. In addition, under setting [2], the “Median TTE” value came to 43, the “Regressions CR” value was found to be 0%, the “Regressions PR” value was determined as 0% and the “Regressions TFS” value worked out at 0%. In addition, under setting [2], the “Statistical Results For Groups Tested” value is reported as “Significant against vehicle (p ≤ 0.01)”, the T-C is reported as 18 days and the TGD is recorded as 73%. The “efficacy (mean tumor volumes, FIG. 1)” value (single agent, at both the 30 mg/kg and 150 mg/kg dosages) is on record as “only marginally effective”.
